Values quoted from earlier work in publication PMC11511053, “Characterization of Kunitz-Domain Anticoagulation Peptides Derived from Acinetobacter baumannii Exotoxin Protein F6W77” (Toxins, 2024).

System: Target
Settings: Table 1, column Ref; ref PN2KPI [25], RVV inhibitor II [40], Simukunin [43], EnKT1 [48], SjKI-1 [22], Schixator [50], SmKI-1 [49], joannsin [44], KPI [45], BF9 [29], Fasxiator [42], Amblyomin-X [27], TAP [46], Bicolin [47]; cited from earlier work
Description: Table 1 Natural Kunitz-type anticoagulant peptides from different organisms. | column: Target

TAP: Kunitz-type anticoagulant peptide from tick (YNRLCIKPRDWIDECDSNEGGERAYFRNGKGGCDSFWICPEDHTGADYYSSYRDCFNACI; UniProt P17726 1-60, looked up)
Target: FXa
